Measured values: patent publication US8148391B2 (Cephalon, Inc., priority 2006, dated 2012)

Target: T1, baculovirus-expressed ALK (Homo sapiens, UniProt Q9UM73)
T1 construct: host or cells: baculovirus expression system
Experiment: ALK Kinase Assay (ELISA-type, time-resolved fluorescence)
Format: biochemical
Conditions: 1 μM ATP (Km level), 30 ng/ml ALK, 37° C., 15 minutes; read-out: ALK Activity (ALK kinase inhibition, IC50 class)
Protocol: Briefly, each 96-well plate was coated with 100 μL/well of 10 μg/mL substrate (phospholipase C-γ) in Tris-buffered saline (TBS). […] The reaction was initiated by adding enzyme (30 ng/ml ALK) and was allowed to proceed at 37° C. for 15 minutes. Detection of the phosphorylated product was performed by adding 100 μl/well of Eu-N1 labeled PT66 antibody (Perkin Elmer # AD0041).
Data analysis was performed using ActivityBase (IDBS, Guilford, UK). IC50 values were calculated by plotting percent inhibition versus log10 of the concentration of compound and fitting to the nonlinear regression sigmoidal dose-response (variable slope) equation in XLFit (IDBS, Guilford, UK).

T1 sequence (Q9UM73 19-1620): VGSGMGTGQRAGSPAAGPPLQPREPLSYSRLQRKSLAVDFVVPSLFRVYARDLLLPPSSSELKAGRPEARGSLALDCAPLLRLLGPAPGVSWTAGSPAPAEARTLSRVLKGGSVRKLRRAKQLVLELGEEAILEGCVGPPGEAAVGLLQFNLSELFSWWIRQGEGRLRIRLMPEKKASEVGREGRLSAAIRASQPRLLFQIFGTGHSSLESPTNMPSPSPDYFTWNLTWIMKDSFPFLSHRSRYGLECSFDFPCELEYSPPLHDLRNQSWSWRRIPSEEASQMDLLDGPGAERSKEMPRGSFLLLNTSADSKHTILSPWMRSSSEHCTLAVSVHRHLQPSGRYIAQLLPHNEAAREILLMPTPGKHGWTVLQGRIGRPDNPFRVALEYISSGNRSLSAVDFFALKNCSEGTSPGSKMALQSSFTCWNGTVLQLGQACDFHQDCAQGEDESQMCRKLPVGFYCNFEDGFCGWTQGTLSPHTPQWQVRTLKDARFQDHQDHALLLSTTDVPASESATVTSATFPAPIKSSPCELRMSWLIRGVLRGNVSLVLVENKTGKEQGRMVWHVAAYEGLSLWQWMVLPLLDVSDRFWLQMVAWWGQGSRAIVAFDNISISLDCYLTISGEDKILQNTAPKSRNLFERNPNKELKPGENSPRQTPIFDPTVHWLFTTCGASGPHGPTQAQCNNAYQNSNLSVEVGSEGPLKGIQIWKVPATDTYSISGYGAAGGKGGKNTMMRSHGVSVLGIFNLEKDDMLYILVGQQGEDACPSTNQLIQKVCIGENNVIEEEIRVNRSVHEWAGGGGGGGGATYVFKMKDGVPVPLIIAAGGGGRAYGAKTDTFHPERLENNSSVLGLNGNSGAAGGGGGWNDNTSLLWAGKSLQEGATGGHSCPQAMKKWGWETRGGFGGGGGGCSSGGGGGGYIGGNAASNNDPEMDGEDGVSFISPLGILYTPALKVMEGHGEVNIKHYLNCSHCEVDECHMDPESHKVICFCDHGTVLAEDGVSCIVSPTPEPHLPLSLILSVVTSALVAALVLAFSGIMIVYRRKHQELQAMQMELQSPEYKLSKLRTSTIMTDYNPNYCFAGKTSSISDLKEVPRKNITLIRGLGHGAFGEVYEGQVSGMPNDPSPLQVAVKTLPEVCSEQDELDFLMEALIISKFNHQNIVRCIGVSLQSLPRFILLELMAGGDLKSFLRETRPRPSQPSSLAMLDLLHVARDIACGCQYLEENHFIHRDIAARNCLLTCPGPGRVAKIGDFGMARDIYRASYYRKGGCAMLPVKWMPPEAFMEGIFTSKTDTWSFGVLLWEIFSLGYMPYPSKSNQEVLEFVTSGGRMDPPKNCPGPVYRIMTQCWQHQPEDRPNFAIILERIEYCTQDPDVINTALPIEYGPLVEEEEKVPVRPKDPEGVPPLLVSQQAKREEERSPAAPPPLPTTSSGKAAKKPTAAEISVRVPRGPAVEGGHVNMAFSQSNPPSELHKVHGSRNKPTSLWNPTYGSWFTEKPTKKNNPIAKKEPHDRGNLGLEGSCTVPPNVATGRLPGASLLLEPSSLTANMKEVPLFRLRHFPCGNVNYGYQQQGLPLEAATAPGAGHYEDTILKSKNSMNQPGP

IC50 [nM]	Structure (SMILES)
< 100	CCCCNC(=O)c1ccccc1Nc1nc(Nc2ccc3c(c2)CCCC(=O)N3C)ncc1Cl [Example 1030, N-Butyl-2-[5-chloro-2-(1-methyl-2-oxo-2,3,4,5-tetrahydro-1H-benzo[b]azepin-7-ylamino)-pyrimidin-4-ylamino]-benzamide]
100 to 1000	CNC(=O)c1cccc(F)c1Nc1nc(Nc2ccc3c(c2)NC(=O)C(NC(=O)N2CCCC2)CC3(C)C)ncc1Cl (stereo not drawn) [Example 1295, Pyrrolidine-1-carboxylic acid {8-[5-chloro-4-(2-fluoro-6-methylcarbamoyl-phenylamino)-pyrimidin-2-ylamino]-5,5-dimethyl-2-oxo-2,3,4,5-tetrahydro-1H-1-benzazepin-3-yl}-amide]
< 100	CCCNC(=O)c1ccccc1Nc1nc(Nc2ccc3c(c2)CCCC(=O)N3C)ncc1Cl [Example 1025, 2-[5-Chloro-2-(1-methyl-2-oxo-2,3,4,5-tetrahydro-1H-benzo[b]azepin-7-ylamino)-pyrimidin-4-ylamino]-N-propyl-benzamide]
< 100	CNC(=O)c1cccc(F)c1Nc1nc(Nc2ccc3c(c2)NC(=O)C(N)CC3(C)C)ncc1Cl (stereo not drawn) [Example 1272, 2-[2-(3-Amino-5,5-dimethyl-2-oxo-2,3,4,5-tetrahydro-1H-1-benzazepin-8-ylamino)-5-chloro-pyrimidin-4-ylamino]-3-fluoro-N-methyl-benzamide]
100 to 1000	CCOC(=O)N1CCCOc2cc(Nc3ncc(Cl)c(Nc4c(F)cccc4C(=O)NC)n3)ccc21 [Example 1417, 3-[5-Chloro-4-(2-fluoro-6-methylcarbamoyl-phenylamino)-pyrimidin-2-ylamino]-7,8-dihydro-6H-5-oxa-9-aza-benzocycloheptene-9-carboxylic acid ethyl ester]
100 to 1000	CNC(=O)c1cccc(F)c1Nc1nc(Nc2ccc3c(c2)OCCCN3C(=O)OC)ncc1Cl [Example 1431, 3-[5-Chloro-4-(2-fluoro-6-methylcarbamoyl-phenylamino)-pyrimidin-2-ylamino]-7,8-dihydro-6H-5-oxa-9-aza-benzocycloheptene-9-carboxylic acid methyl ester]
100 to 1000	CNC(=O)c1cccc(F)c1Nc1nc(Nc2ccc3c(c2)OCCCN3C(=O)OCCCN(C)C)ncc1Cl [Example 1426, 3-[5-Chloro-4-(2-fluoro-6-methylcarbamoyl-phenylamino)-pyrimidin-2-ylamino]-7,8-dihydro-6H-5-oxa-9-aza-benzocycloheptene-9-carboxylic acid 3-dimethylamino-propyl ester]
100 to 1000	CCOC(=O)N1CCCOc2ccc(Nc3ncc(Cl)c(Nc4c(F)cccc4C(=O)NC)n3)cc21 [Example 1410, 2-[5-Chloro-4-(2-fluoro-6-methylcarbamoyl-phenylamino)-pyrimidin-2-ylamino]-7,8-dihydro-6H-5-oxa-9-aza-benzocycloheptene-9-carboxylic acid ethyl ester]
< 100	C#CCNC(=O)c1ccccc1Nc1nc(Nc2ccc3c(c2)CCCC(=O)N3C)ncc1Cl [Example 1388, 2-[5-Chloro-2-(1-methyl-2-oxo-2,3,4,5-tetrahydro-1H-benzo[b]azepin-7-ylamino)-pyrimidin-4-ylamino]-N-prop-2-ynyl-benzamide]
100 to 1000	CNC(=O)c1cccc(F)c1Nc1nc(Nc2ccc3c(c2)NC(=O)C(NC(=O)CN(C)C)CC3(C)C)ncc1Cl (stereo not drawn) [Example 1285, 2-{5-Chloro-2-[3-(2-dimethylamino-acetylamino)-5,5-dimethyl-2-oxo-2,3,4,5-tetrahydro-1H-1-benzazepin-8-ylamino]-pyrimidin-4-ylamino}-3-fluoro-N-methyl-benzamide]
100 to 1000	CNC(=O)c1cccc(F)c1Nc1nc(Nc2ccc3c(c2)NC(=O)C(NC(C)=O)CC3(C)C)ncc1Cl (stereo not drawn) [Example 1289, 2-[2-(3-Acetylamino-5,5-dimethyl-2-oxo-2,3,4,5-tetrahydro-1H-1-benzazepin-8-ylamino)-5-chloro-pyrimidin-4-ylamino]-3-fluoro-N-methyl-benzamide]
< 100	C#CCN(C)C(=O)c1ccccc1Nc1nc(Nc2ccc3c(c2)CCCC(=O)N3C)ncc1Cl [Example 1390, [5-Chloro-2-(1-methyl-2-oxo-2,3,4,5-tetrahydro-1H-benzo[b]azepin-7-ylamino)-pyrimidin-4-ylamino]-N-methyl-N-prop-2-ynyl-benzamide]
100 to 1000	CNC(=O)c1cccc(F)c1Nc1nc(Nc2ccc3c(c2)NC(=O)C(NC(=O)OC)CC3(C)C)ncc1Cl (stereo not drawn) [Example 1299, {8-[5-Chloro-4-(2-fluoro-6-methylcarbamoyl-phenylamino)-pyrimidin-2-ylamino]-5,5-dimethyl-2-oxo-2,3,4,5-tetrahydro-1H-1-benzazepin-3-yl}-carbamic acid methyl ester]
100 to 1000	CNC(=O)c1cccc(F)c1Nc1nc(Nc2ccc3c(c2)NC(=O)CCC3)ncc1Cl [Example 1375, 2-[5-Chloro-2-(2-oxo-2,3,4,5-tetrahydro-1H-benzo[b]azepin-8-ylamino)-pyrimidin-4-ylamino]-3-fluoro-N-methyl-benzamide]

Same assay, conditions: ALK kinase inhibition, 1 μM ATP (Km level); read-out: ALK Activity

IC50 [nM]	Structure (SMILES)
100 to 1000	CNC(=O)c1cccc(C)c1Nc1nc(Nc2ccc3c(c2)CCN(CCOC)CC3)ncc1Cl [Example 313, 2-{5-Chloro-2-[3-(2-methoxy-ethyl)-2,3,4,5-tetrahydro-1H-benzo[d]azepin-7-ylamino]-pyrimidin-4-ylamino}-3,N-dimethyl-benzamide]
< 100	CNC(=O)c1ccccc1Nc1nc(Nc2ccc3c(c2)CCN(CCOC)CC3)ncc1Cl [Example 34, 2-{5-Chloro-2-[3-(2-methoxy-ethyl)-2,3,4,5-tetrahydro-1H-benzo[d]azepin-7-ylamino]-pyrimidin-4-ylamino}-N-methyl-benzamide]
< 100	CNC(=O)c1cccc(F)c1Nc1nc(Nc2ccc3c(c2)C(C)(C)CCC(=O)N3)ncc1Cl [Example 396, 2-[5-Chloro-2-(5,5-dimethyl-2-oxo-2,3,4,5-tetrahydro-1H-benzo[b]azepin-7-ylamino)-pyrimidin-4-ylamino]-3-fluoro-N-methyl-benzamide]

Same assay, conditions: ALK kinase inhibition, 1 μM ATP; read-out: ALK Activity

IC50 [nM]	Structure (SMILES)
100 to 1000	CNC(=O)c1cccc(F)c1Nc1nc(Nc2ccc3c(c2)OCCCN3C(=O)COC)ncc1Cl [Example 1726, 2-{5-Chloro-2-[9-(2-methoxy-acetyl)-6,7,8,9-tetrahydro-5-oxa-9-aza-benzocyclohepten-3-ylamino]-pyrimidin-4-ylamino}-3-fluoro-N-methyl-benzamide]
100 to 1000	CNC(=O)c1cccc(F)c1Nc1nc(Nc2ccc3c(c2)OCCCN3C(=O)CN2CCCC2)ncc1Cl [Example 1714, 2-{5-Chloro-2-[9-(2-pyrrolidin-1-yl-acetyl)-6,7,8,9-tetrahydro-5-oxa-9-aza-benzocyclohepten-3-ylamino]-pyrimidin-4-ylamino}-3-fluoro-N-methyl-benzamide]
< 100	CNC(=O)c1cccc(F)c1Nc1nc(Nc2ccc3c(c2)N(CCOC)C(=O)CCC3(C)C)ncc1Cl [Example 1581, 2-{5-Chloro-2-[1-(2-methoxy-ethyl)-5,5-dimethyl-2-oxo-2,3,4,5-tetrahydro-1H-benzo[b]azepin-8-ylamino]-pyrimidin-4-ylamino}-3-fluoro-N-methyl-benzamide]
100 to 1000	CNC(=O)c1cccc(F)c1Nc1nc(Nc2ccc3c(c2)OCCCN3C(C)=O)ncc1Cl [Example 1724, 2-[2-(9-Acetyl-6,7,8,9-tetrahydro-5-oxa-9-aza-benzocyclohepten-3-ylamino)-5-chloro-pyrimidin-4-ylamino]-3-fluoro-N-methyl-benzamide]
100 to 1000	CCN1CCCOc2ccc(Nc3ncc(Cl)c(Nc4c(F)cccc4C(=O)NC)n3)cc21 [Example 1697, 2-[5-Chloro-2-(9-ethyl-6,7,8,9-tetrahydro-5-oxa-9-aza-benzocyclohepten-2-ylamino)-pyrimidin-4-ylamino]-3-fluoro-N-methyl-benzamide]
< 100	CNC(=O)c1cccc(F)c1Nc1nc(Nc2ccc3c(c2)N(CC(C)C)C(=O)CCC3(C)C)ncc1Cl [Example 1592, 2-[5-Chloro-2-(1-isobutyl-5,5-dimethyl-2-oxo-2,3,4,5-tetrahydro-1H-benzo[b]azepin-8-ylamino)-pyrimidin-4-ylamino]-3-fluoro-N-methyl-benzamide]
100 to 1000	CNC(=O)c1cccc(F)c1Nc1nc(Nc2ccc3c(c2)NC(=O)CCC3(C)C)ncc1Cl [Example 1574, 2-[5-Chloro-2-(5,5-dimethyl-2-oxo-2,3,4,5-tetrahydro-1H-benzo[b]azepin-8-ylamino)-pyrimidin-4-ylamino]-3-fluoro-N-methyl-benzamide]
< 100	CCN1C(=O)CCC(C)(C)c2ccc(Nc3ncc(Cl)c(Nc4c(F)cccc4C(=O)NC)n3)cc21 [Example 1576, 2-[5-Chloro-2-(1-ethyl-5,5-dimethyl-2-oxo-2,3,4,5-tetrahydro-1H-benzo[b]azepin-8-ylamino)-pyrimidin-4-ylamino]-3-fluoro-N-methyl-benzamide]
< 100	CCN1CCCOc2cc(Nc3ncc(Cl)c(Nc4c(F)cccc4C(=O)NC)n3)ccc21 [Example 1692, 2-[5-Chloro-2-(9-ethyl-6,7,8,9-tetrahydro-5-oxa-9-aza-benzocyclohepten-3-ylamino)-pyrimidin-4-ylamino]-3-fluoro-N-methyl-benzamide]
< 100	CNC(=O)c1cccc(F)c1Nc1nc(Nc2ccc3c(c2)OCCCN3CCN2CCCC2)ncc1Cl [Example 1718, 2-{5-Chloro-2-[9-(2-pyrrolidin-1-yl-ethyl)-6,7,8,9-tetrahydro-5-oxa-9-aza-benzocyclohepten-3-ylamino]-pyrimidin-4-ylamino}-3-fluoro-N-methyl-benzamide]
